Results taken from patent US5602153A, “Method of using 1-arylheteroarylalkyl substituted-1H-1,2,4-triazole compounds for treatment of a giaucoma disorder” (G.D. Searle & Co., priority 1993, dated 1997).
Read-outs that look alike come from different tables or passages of the source.

Biological target: T1, rabbit aortic rings (Oryctolagus cuniculus, UniProt P34976)
T1 construct: The thoracic aorta was removed, cleaned of adherent fat and connective tissue; from tissue; host or cells: thoracic aorta rings, endothelium removed, male New Zealand white rabbit
T1 sequence (P34976 1-359): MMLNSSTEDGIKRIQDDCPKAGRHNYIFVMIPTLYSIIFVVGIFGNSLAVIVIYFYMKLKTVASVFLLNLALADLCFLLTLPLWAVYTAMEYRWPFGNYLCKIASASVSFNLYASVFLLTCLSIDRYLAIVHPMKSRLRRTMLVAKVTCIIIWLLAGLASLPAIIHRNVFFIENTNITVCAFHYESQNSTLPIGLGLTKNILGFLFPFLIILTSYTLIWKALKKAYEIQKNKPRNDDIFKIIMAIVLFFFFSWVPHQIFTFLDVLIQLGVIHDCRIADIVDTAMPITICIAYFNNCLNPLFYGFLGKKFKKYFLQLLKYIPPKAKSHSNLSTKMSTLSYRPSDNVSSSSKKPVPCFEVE
Assay: Assay B: In Vitro Vascular Smooth Muscle-Response for AII (antagonist activity in rabbit aortic rings)
Type: cell-based, rabbit (male New Zealand white)
Settings: antagonist 10^-5 M for 5 min, AII challenge
Protocol: Assay B: In Vitro Vascular Smooth Muscle-Response for AII The compounds of the invention were tested for antagonist activity in rabbit aortic rings. Male New Zealand white rabbits (2-2.5 kg) were sacrificed using an overdose of pentobarbital and exsanguinated via the carotid arteries. The thoracic aorta was removed, cleaned of adherent fat and connective tissue and then cut into 3-mm ring segments. The endothelium was removed from the rings by gently sliding a rolled-up piece of filter paper into the vessel lumen. The rings were then mounted in a water-jacketed tissue bath, maintained at 37° C., between moveable and fixed ends of a stainless steel wire with the moveable end attached to an FT03 Grass transducer coupled to a Model 7D Grass Polygraph for recording isometric force responses. The bath was filled with 20 ml of oxygenated (95% oxygen/5% carbon dioxide) Krebs solution of the following composition (mM): 130 NaCl, 15 NaHCO3, 15 KCl, 1.2 NaH2 PO4, 1.2 MgSO4, 2.5 CaCl2, and 11.4 glucose. The preparations were equilibrated for one hour before approximately one gram of passive tension was placed on the rings. Angiotensin II concentration-response curves were then recorded (3×10^-10 to 1×10^-5 M). Each concentration of AII was allowed to elicit its maximal contraction, and then AII was washed out repeatedly for 30 minutes before rechallenging with a higher concentration of AII. Aorta rings were exposed to the test antagonist at 10^-5 M for 5 minutes before challenging with AII. Adjacent segments of the same aorta ring were used for all concentration-response curves in the presence or absence of the test antagonist. The effectiveness of the test compound was expressed in terms of pA2 values and were calculated according to H.O. Schild [Br. J. Pharmacol. Chemother., 2, 189-206 (1947)]. The pA2 value is the concentration of the antagonist which increases the EC50 value for AII by a factor of two. Each test antagonist was evaluated in aorta rings from two rabbits.

[1] = first of two rabbits, read-out: pA2 (first value) (converted)
[2] = second of two rabbits, read-out: pA2 (converted)

| Structure (SMILES) | Kb [1] [nM] | Kb [2] [nM] |
| --- | --- | --- |
| CCCCc1nc(CCCC)n(Cc2ccc(-c3ccccc3-c3nnn[nH]3)cn2)n1 [Example 1, 5-[2-[6-[(3,5-dibutyl-1H-1,2,4-triazol-1-yl)methyl]-3-pyridinyl]phenyl]-1H-tetrazole] | 13.2 | 9.77 |
| CCCCc1nc(CCCC)n(Cc2ccc(-c3ccccc3-c3nnn[nH]3)nc2)n1 [Example 3, 5-[2-[5-[(3,5-dibutyl-1H-1,2,4-triazol-1-yl)methyl]-2-pyridinyl]phenyl]-1H-tetrazole] | 2.69 | 5.75 |
